The record followed here is ChEMBL document CHEMBL5143725, “Optimization of TEAD P-Site Binding Fragment Hit into In Vivo Active Lead MSC-4106” (J Med Chem, 2022).

The nature of data set [1]: Solubility of the compound in PBS buffer at pH 7.4. Type of data set: physicochemical.
A short description of data set [2]: Solubility of the compound in SGF buffer at pH 1.2. The class given is physicochemical.
The nature of data set [3]: Inhibition of YAP/TAZ-TEAD interaction in human SK-HEP1 cells incubated for 24 hrs by luciferase reporter gene assay. Type of data set: cell-based.
Data set [4] is described as follows: Microsomal stability in human microsomes measured per 10^6 cells. The class given is ADME, Microsome.
Data set [5] can be described thus: Microsomal stability in mouse microsomes measured per 10^6 cells. Type of data set: ADME, Microsome.
In data set [6] the target is T1, Transcriptional enhancer factor TEF-5 (Homo sapiens, UniProt Q99594). In words: Binding affinity to human TEAD3 (216 to 435 residues) expressed in Escherichia coli BL21 Star (DE3) assessed as change in melting temperature incubated for 2 hrs by measuring tryptophane fluorescence by Nano Differential scanning fluorometry.
The target in data set [7] is T2, Transcriptional enhancer factor TEF-3 (Homo sapiens, UniProt Q15561). Briefly: Binding affinity to human TEAD4 (217 to 434 residues) expressed in Escherichia coli BL21 Star (DE3) assessed as change in melting temperature incubated for 2 hr by measuring tryptophane fluorescence by Nano Differential scanning fluorometry.
Data set [8] addresses T3, Transcriptional enhancer factor TEF-1 (Homo sapiens, UniProt P28347). In words: Binding affinity to human TEAD1 (209 to 426 residues) expressed in Escherichia coli BL21 Star (DE3) assessed as change in melting temperature incubated for 2 hrs by measuring tryptophane fluorescence by Nano Differential scanning fluorometry.
Data set [9] addresses T1, Transcriptional enhancer factor TEF-5. In words: Inhibition of pSF-CMV-P-FLAG tagged human TEAD3 palmitoylation transfected in HEK293 cells at 10 uM incubated for 6 hrs by Western blot analysis relative to control. Type of data set: cell-based.
Data set [10] has as its target T4, Transcriptional enhancer factor TEF-4 (Homo sapiens, UniProt Q15562). Briefly: Binding affinity to human TEAD2 (217 to 447 residues) expressed in Escherichia coli BL21 Star (DE3) assessed as change in melting temperature incubated for 2 hrs by measuring tryptophane fluorescence by Nano Differential scanning fluorometry.
Data set [11] addresses T4, Transcriptional enhancer factor TEF-4. In words: Inhibition of pSF-CMV-P-FLAG tagged human TEAD2 palmitoylation transfected in HEK293 cells at 10 uM incubated for 6 hrs by Western blot analysis relative to control. The class given is cell-based.
Data set [12] addresses T3, Transcriptional enhancer factor TEF-1. In words: Inhibition of pSF-CMV-P-FLAG tagged human TEAD1 palmitoylation transfected in HEK293 cells at 10 uM incubated for 6 hrs by Western blot analysis relative to control. Type of data set: cell-based.
Data set [13] addresses T2, Transcriptional enhancer factor TEF-3. Briefly: Inhibition of pSF-CMV-P-FLAG tagged human TEAD4 palmitoylation transfected in HEK293 cells at 10 uM incubated for 6 hrs by Western blot analysis relative to control. Type of data set: cell-based.
The test system of data set [14] is NCI-H226. In words: Cytotoxicity against human NCI-H226 cells assessed as cell viability at 10 uM measured for 7 days by celltiter-glo assay. Conditions: NCI-H226, 168 h. The class given is functional, cell-based.
Data set [15] in a line: Microsomal stability in human hepatocyte measured per 10^6 cells. Type of data set: ADME, cell-based. The note with it: hepatocytes.
The target in data set [16] is T3, Transcriptional enhancer factor TEF-1. Briefly: Binding affinity to human TEAD1 (209 to 426 residues) expressed in Escherichia coli BL21 Star (DE3) by surface plasmon resonance assay.
Data set [17] has as its target T2, Transcriptional enhancer factor TEF-3. Briefly: Binding affinity to human TEAD4 (217 to 434 residues) expressed in Escherichia coli BL21 Star (DE3) by surface plasmon resonance assay.
Data set [18] addresses T4, Transcriptional enhancer factor TEF-4. Briefly: Binding affinity to human TEAD2 (217 to 447 residues) expressed in Escherichia coli BL21 Star (DE3) by surface plasmon resonance assay.

T3 sequence (P28347 whole entry, the tested form may be a part): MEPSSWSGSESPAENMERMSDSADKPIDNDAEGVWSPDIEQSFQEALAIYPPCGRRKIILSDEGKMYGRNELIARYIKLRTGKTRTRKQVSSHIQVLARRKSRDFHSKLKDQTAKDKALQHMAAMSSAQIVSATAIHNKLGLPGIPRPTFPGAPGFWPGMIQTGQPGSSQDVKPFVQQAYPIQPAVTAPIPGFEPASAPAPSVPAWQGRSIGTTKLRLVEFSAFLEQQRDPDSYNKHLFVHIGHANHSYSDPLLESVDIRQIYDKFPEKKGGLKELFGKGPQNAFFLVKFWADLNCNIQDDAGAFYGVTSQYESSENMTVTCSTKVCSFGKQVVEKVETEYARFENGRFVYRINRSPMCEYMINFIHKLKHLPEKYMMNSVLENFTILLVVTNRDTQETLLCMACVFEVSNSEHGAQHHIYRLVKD
T1 sequence (Q99594 whole entry, the tested form may be a part): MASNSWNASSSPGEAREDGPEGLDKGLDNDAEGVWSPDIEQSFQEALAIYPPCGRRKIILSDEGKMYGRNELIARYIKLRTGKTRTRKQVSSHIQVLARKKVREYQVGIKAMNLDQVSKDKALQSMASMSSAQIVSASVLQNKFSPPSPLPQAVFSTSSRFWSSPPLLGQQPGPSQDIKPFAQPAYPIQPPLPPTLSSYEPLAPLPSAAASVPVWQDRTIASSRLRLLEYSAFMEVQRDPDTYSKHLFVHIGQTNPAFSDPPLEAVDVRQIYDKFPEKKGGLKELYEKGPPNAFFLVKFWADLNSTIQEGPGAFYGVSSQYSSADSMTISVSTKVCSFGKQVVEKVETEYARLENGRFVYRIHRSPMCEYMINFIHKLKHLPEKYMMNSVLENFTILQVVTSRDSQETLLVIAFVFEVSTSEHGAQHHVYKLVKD
T2 sequence (Q15561 whole entry, the tested form may be a part): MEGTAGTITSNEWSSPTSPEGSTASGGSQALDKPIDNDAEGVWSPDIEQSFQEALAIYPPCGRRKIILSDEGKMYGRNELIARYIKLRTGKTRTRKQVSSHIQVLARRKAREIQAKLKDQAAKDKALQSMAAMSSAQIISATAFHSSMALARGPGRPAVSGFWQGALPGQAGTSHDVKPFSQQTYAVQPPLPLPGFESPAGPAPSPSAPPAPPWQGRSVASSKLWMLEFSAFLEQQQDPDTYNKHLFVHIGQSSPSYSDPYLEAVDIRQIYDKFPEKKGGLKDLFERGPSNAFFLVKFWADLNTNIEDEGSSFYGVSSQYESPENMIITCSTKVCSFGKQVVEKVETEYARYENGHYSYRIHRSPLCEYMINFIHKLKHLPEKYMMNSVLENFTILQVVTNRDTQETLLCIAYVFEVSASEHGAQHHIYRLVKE
T4 sequence (Q15562 whole entry, the tested form may be a part): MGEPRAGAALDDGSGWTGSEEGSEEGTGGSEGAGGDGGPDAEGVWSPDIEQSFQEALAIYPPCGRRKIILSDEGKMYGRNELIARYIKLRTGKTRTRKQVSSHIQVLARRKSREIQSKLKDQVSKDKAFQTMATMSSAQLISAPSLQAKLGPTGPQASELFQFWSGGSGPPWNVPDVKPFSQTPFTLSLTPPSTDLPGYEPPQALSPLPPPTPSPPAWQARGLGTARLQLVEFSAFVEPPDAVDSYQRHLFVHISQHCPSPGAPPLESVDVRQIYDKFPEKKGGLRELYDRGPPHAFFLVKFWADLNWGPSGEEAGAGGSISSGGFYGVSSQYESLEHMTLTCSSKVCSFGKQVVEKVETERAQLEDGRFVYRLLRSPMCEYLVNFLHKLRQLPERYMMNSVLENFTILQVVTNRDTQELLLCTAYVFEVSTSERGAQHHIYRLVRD

With `Cn1cc2c3cc(C(=O)O)ccc3n(CC3CCCCC3)c2n1`, the results for the solubility in data set [1] and in data set [2] were more than 40 µg/mL and less than 1 µg/mL, respectively. In addition, in [3], the IC50 came out at 96 nM.
As to `Cn1cc2c3cc(C(=O)O)ccc3n(CCC(C)(C)C(F)(F)F)c2n1`, the Stability in [4] and in [5] was less than 10 µL/min throughout. The solubility is more than 40 µg/mL in data set [1] and less than 1 µg/mL in data set [2]. Moreover, in data set [3], the half-inhibitory concentration (IC50) stood at 83 nM.
In the case of `Cn1cc2c3cc(C(=O)O)ccc3n(-c3ccc(OC(F)(F)F)cc3F)c2n1`, in data set [3], the 50% inhibitory concentration (IC50) was 27 nM.
As to `Cn1cc2c3cc(C(=O)O)ccc3n(-c3cccc(OC(F)(F)F)c3)c2n1`, half-maximal inhibition in data set [3] (IC50) was put at 11 nM.
Compound `Cn1cc2c3cc(C(=O)O)ccc3n(-c3ccc(C(F)(F)F)nc3)c2n1` returned an IC50 in [3] of 14 nM.
Same read-out and setting: the value for `Cn1cc2c3cc(C(=O)O)ccc3n(-c3cccc(C(F)(F)F)c3)c2n1` was 46 nM; that for `Cn1cc2c3cc(C(=O)O)cnc3n(-c3ccc(C(F)(F)F)cc3)c2n1` was 6 nM; that for `Cn1ncc2c3cc(C(=O)O)ccc3n(-c3ccc(C(F)(F)F)cc3)c21` was 16.6 nM.
For the compound `C[C@H](NC(=O)c1ccc2c(-c3ccc(C(F)(F)F)cc3)cccc2c1)c1ccccn1`, the thermal shift (ΔTm) in [6] is 10.1 °C; in data set [7], -2.25 °C; in [8] it was 10.8 °C; in [10], 9.8 °C. Besides, the inhibition in data set [9] is 93%; in data set [11], 87%; in [12], 93%; in data set [13], 93%. For the same compound, the IC50 in data set [14] is 42 nM; in data set [3], 25 nM.
`Cn1cc2c3cc(C(=O)O)ccc3n(CC3CCC(C(F)(F)F)CC3)c2n1` (configuration not stated) had an IC50 in data set [3] of 30 nM.
Regarding `O=C(O)c1ccc2c(c1)c1cn(C(F)(F)F)nc1n2-c1ccc(C(F)(F)F)cc1`, in data set [15], the Stability was less than 4 µL/min. In [3], this compound came in with a concentration for half-maximal inhibition (IC50) of 7 nM.
With `Cn1cc2c3cc(C(=O)O)ccc3n(-c3ccc(C(F)(F)F)c(F)c3)c2n1`, it took 4 nM to reach half-maximal inhibition in data set [3] (IC50).
Same read-out and setting: the value for `CCn1cc2c3cc(C(=O)O)ccc3n(-c3ccc(C(F)(F)F)cc3)c2n1` was 3 nM.
As to `Cn1cc2c3cc(C(=O)O)ccc3n(C)c2n1`, the Stability in data set [4] and in data set [5] was less than 10 µL/min throughout. The compound further gave an IC50 in data set [3] of more than 30000 nM.
Regarding `Cn1cc2c3cc(C(=O)O)ccc3n(C34CC(C(F)(F)F)(C3)C4)c2n1`, the Stability in data set [4] and in data set [5] was less than 10 µL/min in each case. Further, in data set [3], the 50% inhibitory concentration (IC50) turned out to be 33 nM.
For `Cn1cc2c(n1)c1cc(C(=O)O)ccc1n2-c1ccc(C(F)(F)F)cc1`, the IC50 in data set [3] stood at 9 nM.
In data set [3], `Cn1ncc2c1c1cc(C(=O)O)ccc1n2-c1ccc(C(F)(F)F)cc1` showed an IC50 of 48 nM.
In the case of `C[C@@H](NC(=O)c1ccc2c(-c3ccc(C(F)(F)F)cc3)cccc2c1)c1cccc(N)n1`, the ΔTm in data set [6] was determined as 5.9 °C; in data set [7] it was 1.3 °C; in data set [8], 5.5 °C; in data set [10], 3.8 °C. Also, the inhibition is 91% in data set [9], 51% in [11], 83% in [12] and 66% in data set [13]. The half-maximal inhibitory concentration (IC50) in [14] is 661 nM; in [3], 900 nM.
With `Cn1cc2c3cc(C(=O)O)ccc3n(C3CCC(C(F)(F)F)CC3)c2n1` (configuration not stated), the solubility in data set [1] was more than 40 µg/mL; in [2], less than 1 µg/mL. Besides, in data set [3], it took 42 nM to reach half-maximal inhibition (IC50).
Consider `Cn1cc2c(n1)c1cc(C(=O)O)ccc1n2C1CCCCC1`, for which the half-maximal inhibitory concentration (IC50) in data set [3] was 0.73 nM.
Turning to `Cn1cc2c3cc(C(=O)O)ccc3n(CC3CC(C(F)(F)F)C3)c2n1` (configuration not stated), the Stability in data set [4] and in data set [5] was less than 10 µL/min in each case. Moreover, the solubility in data set [1] was more than 40 µg/mL; in data set [2], less than 1 µg/mL. The compound also yielded a concentration for half-maximal inhibition (IC50) in [3] of 52 nM.
`CCCn1cc2c3cc(C(=O)O)ccc3n(-c3ccc(C(F)(F)F)cc3)c2n1` came in with a concentration for half-maximal inhibition (IC50) in data set [3] of 7 nM.
With `C[C@H](NC(=O)c1ccc2c(-c3ccc(C(F)(F)F)cc3)cccc2c1)c1cccc(N)n1`, the ΔTm in [6] was determined as 13.4 °C; in data set [7] it was 1.3 °C; in data set [8], 14.5 °C; in data set [10] it was 13.4 °C. The inhibition in data set [9] was 91%; in [11], 87%; in data set [12], 92%; in [13] it was 93%. Further, the concentration for half-maximal inhibition (IC50) amounted to 20 nM in data set [14] and 30 nM in [3].
`O=C(O)c1cnc2c(cnn2C2CCCCC2)c1` registered an IC50 in data set [3] of 5.2 nM.
Regarding `O=c1[nH]c(-c2nccnc2Nc2ccc(C(F)(F)F)cc2)no1`, the ΔTm in [6] was 8.2 °C; in data set [7], 9.8 °C; in data set [8], 11.2 °C; in [10] it was 12.3 °C. The inhibition in data set [9] worked out at 83%; in data set [11] it was 86%; in [12], 97%; in data set [13], 91%. In addition, the concentration for half-maximal inhibition (IC50) in data set [14] is 110 nM; in data set [3], 15 nM.
In turn, `Cn1cc2c3cc(C(=O)O)ncc3n(-c3ccc(C(F)(F)F)cc3)c2n1` had a 50% inhibitory concentration (IC50) in data set [3] of 39 nM.
Turning to `Cn1cc2c3cc(C(=O)O)ccc3n(C3CC4(C3)CC(F)(F)C4)c2n1`, the Stability in data set [4] and in data set [5] was less than 10 µL/min each time. For the same compound, inhibition in data set [3] was half-maximal at 33 nM (IC50).
In the case of `Cn1cc2c3cc(C(=O)O)ccc3n(-c3ccc(C(F)(F)F)cn3)c2n1`, 5 nM corresponded to half-maximal inhibition in data set [3] (IC50).
`Cn1cc2c(n1)c1cc(C(=O)O)ccc1n2C1CCCC1` yielded an IC50 in data set [3] of 17 nM.
In turn, `COC1CCC(Cn2c3ccc(C(=O)O)cc3c3cn(C)nc32)CC1` (configuration not stated) displayed an IC50 in data set [3] of 250 nM.
The compound `Cn1cc2c3nc(C(=O)O)ccc3n(-c3ccc(C(F)(F)F)cc3)c2n1` gave a half-inhibitory concentration (IC50) in [3] of 16 nM.
Compound `Cn1cc2c3cc(C(=O)O)ccc3n(C3CCCCC3)c2n1` displayed a half-inhibitory concentration (IC50) in [3] of 0.16 nM.
The compound `O=C(O)c1ccc2c(cnn2C2CCCC2)c1` registered a half-inhibitory concentration (IC50) in [3] of more than 30 nM.
As for `CNS(=O)(=O)c1ccc(NCc2ccccc2)c(-c2cn(C)cn2)c1`, the ΔTm in [6] was 0.4 °C; in data set [7], -0.1 °C; in data set [8], 3.4 °C; in data set [10], -0.7 °C. In addition, the inhibition turned out to be 10% in data set [9], 33% in data set [11], 96% in data set [12] and 19% in data set [13]. The concentration for half-maximal inhibition (IC50) amounted to 140 nM in [14] and 29 nM in data set [3].
Turning to `CCCc1nn(C2CCC(F)(F)CC2)c2ccc(C(=O)O)cc12`, the Kd in [16] was 5800 nM; in data set [17] it was 7600 nM; in [18], 43000 nM. Besides, in data set [3], half-maximal inhibition (IC50) was put at 1.1 nM.
Regarding `O=C(O)c1cnc2c(cnn2C2CCC(F)(F)CC2)c1`, inhibition in data set [3] was half-maximal at 28 nM (IC50).
In the case of `Cn1cc2c3cc(C(=O)O)ccc3n(-c3ccc(F)cc3)c2n1`, the IC50 in [3] turned out to be 163 nM.
As for `Cn1cc2c(n1)[nH]c1ccc(C(=O)O)cc12`, the 50% inhibitory concentration (IC50) in data set [3] is more than 30000 nM.
`O=C(O)c1ccc2c(c1)c1c[nH]nc1n2-c1ccc(C(F)(F)F)cc1` displayed a half-inhibitory concentration (IC50) in [3] of 138 nM.
Take `Cn1cc2c3cc(C(=O)O)ccc3n(-c3ccc(OC(F)(F)F)cc3)c2n1`: the Stability in data set [4] is 12 µL/min; in data set [15] it was 19 µL/min. In [3], this compound registered an IC50 of 3 nM.
Turning to `N#CCn1cc2c3cc(C(=O)O)ccc3n(-c3ccc(C(F)(F)F)cc3)c2n1`, half-maximal inhibition in [3] (IC50) required 27 nM.
For `O=C(O)c1cnc2c(cnn2C2CCCC2)c1`, the midpoint of inhibition in [3], the IC50, lay at 16 nM.
As for `CNS(=O)(=O)c1ccc(Nc2ccc(C(F)(F)F)cc2)c(-c2cn(C)cn2)c1`, the ΔTm is 2 °C in data set [6], 3.5 °C in data set [7], 10.2 °C in [8] and 7.2 °C in data set [10]. Moreover, the inhibition in [9] turned out to be 29%; in data set [11], 69%; in [12] it was 97%; in [13] it was 70%. Further, the IC50 in data set [14] was 3 nM; in data set [3], 1 nM.
Compound `O=C(O)c1ccc2c(cnn2C2CCC(F)(F)CC2)c1` gave a 50% inhibitory concentration (IC50) in data set [3] of 14 nM.
